# Assay results reported in patent US4886517A, “Dyeing composition for human hair containing an azo dye” (L'Oreal, priority 1985, dated 1989).
# How the values were obtained:
# Salmonella strains = test: Ames test (mutagenicity); assay type: biochemical
# [1] = Solubility in 96° ethanol at 25° C.; assay type: physicochemical
# Text: The compound of formula (II) also has the advantage of having a good solubility in the usual dye carriers.
# [2] = Dye fastness on hair, fastness to washing/shampooing; design: species or system human; settings: compared to nitro benzene dyes
compound,measurement,setting,value
Cc1cc(N(CCO)CCO)ccc1N=Nc1ccc(N)cc1 [(II)],non-mutagenicity,Salmonella strains; strains and activation not stated for this compound,non-mutagenicity has been demonstrated
same,solubility,[1],5.3%
Nc1ccc(N=Nc2ccc(N(CCO)CCO)cc2)cc1 [(I)],mutagenicity (Ames test),"Salmonella strains; five strains of the Salmonella type, in the presence of a S-9 Mix microsomal activator",mutagenic to five strains of the Salmonella type
same,solubility,[1],1.3%
same,stability to washing,[2],improved stability to washing
